82 compounds from PubChem BioAssay AID1205 (EPA DSSTox, 2008) can be followed below.

Each structure is given as a SMILES string. The source made the active and inactive calls.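 The calls were made as follows: active = tumour findings in long-term animal cancer tests in more than one sex, species or organ; inactive = no tumour finding and more than one negative test.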

The data set in a line: DSSTox (CPDBAS) Carcinogenic Potency Database Summary MultiCellCall Results. The conditions noted are these: animal carcinogenicity bioassays, multi-cell call summary. From the text:
The Carcinogenic Potency Database (CPDB) is a unique and widely used international resource of the results of over 6500 chronic, long-term animal cancer tests on over 1500 chemical substances. The CPDB provides easy access to the bioassay literature, with qualitative and quantitative analyses of both positive and negative experiments that have been published over the past 50 years in the general literature and by the National Cancer Institute/National Toxicology Program. The CPDB standardizes the diverse literature of cancer bioassays that vary widely in protocol, histopathological examination and nomenclature, and in the published author's choices of what information to provide in their papers. Results are reported in the CPDB for tests in rats, mice, hamsters, dogs, and nonhuman primates, and are based on the most positive result among all experiments for each sex-species. The DSSTox CPDBAS (all species) file incorporates data from the CPDB Summary Tables for the full list of over 1500 chemical substances tested in at least one species. A summary MultiCellCall, based on experimental bioassay results of one or more species, is provided in the DSSTox CPDBAS file (see Source URL) for more than 1150 chemical substances.
Associated TD50 values and tumor site details for the relevant species/sex experiment supporting the overall CPDBAS MultiSiteCall are provided in the full DSSTox CPDBAS file (see Comment) and the corresponding CPDBAS Species Bioassay in PubChem. ActivityScore is computed as follows: multispecies=50, multisex=30, multisite=20, with combination scores computed as sums of these values, e.g. multispecies+multisite=70.

As for `CN(C)c1ccc(C(=N)c2ccc(N(C)C)cc2)cc1`, the outcome was “active; multisex active; multispecies active”.

Turning to `CC(C)NCC(O)COc1cccc2ccccc12` (configuration not stated), the outcome was “inactive; multisex inactive; multispecies inactive”.

For `CCCCOCCO`, the outcome was “active; multisite active; multisex active”.

Take `CCN(CC)C(=S)[S-].CCN(CC)C(=S)[S-].[Zn+2]`: the outcome was “inactive; multisex inactive”.

Turning to `Cc1cc(Cc2ccc(N)c(C)c2)ccc1N`, the outcome is “active; multisite active; multisex active”.

Turning to `CCN(CC)c1cc2oc3cc(=[N+](CC)CC)c(C)cc-3c(-c3ccc(S(=O)(=O)O)cc3S(=O)(=O)[O-])c2cc1C`, the outcome was “inactive; multisex inactive”.

Regarding `CCCCCCCCCCC(C)c1ccc(S(=O)(=O)O)cc1` (configuration not stated), the outcome is “inactive; multisex inactive”.

For `CN1C2CC[C@@H]1CC(NC(=O)c1cc(Cl)cc3c1OC(C)(C)C3)C2` (some centres not stated), the outcome is “inactive; multisex inactive”.

For the compound `Nc1cc(Cl)c(N)c(Cl)c1`, the outcome is “active; multisex active”.

Consider `NC(=O)CCCCC(N)=O`, for which the outcome was “inactive; multisex inactive; multispecies inactive”.

Regarding `N#CN=C(N)N`, the outcome was “inactive; multisex inactive”.

For the compound `COc1cc(/C=N/NC(=O)c2ccncc2)ccc1O`, the outcome is “active; multisite active”.

Regarding `Cc1cc(OC(=O)N(C)C)n(C(C)C)n1`, the outcome is “inactive; multisex inactive”.

For the compound `C=CC=O`, the outcome is “inactive; multisex inactive; multispecies inactive”.

With `CNc1ncnc2c1ncn2[C@@H]1O[C@H](CO)[C@@H](O)[C@H]1O`, the outcome was “inactive; multisex inactive”.

In the case of `IC(I)I`, the outcome was “inactive; multisex inactive; multispecies inactive”.

In the case of `ClC#CCl`, the outcome is “active; multisite active; multisex active; multispecies active”.

With `CC(Oc1cc(Cl)c(Cl)cc1Cl)C(=O)O` (configuration not stated), the outcome is “inactive; multisex inactive”.

For the compound `ClC1=C(Cl)C2(Cl)C3C(Cl)C=CC3C1(Cl)C2(Cl)Cl` (configuration not stated), the outcome was “active; multisex active”.

Take `CCCCC(CC)COC(=O)CCCCC(=O)OCC(CC)CCCC` (configuration not stated): the outcome is “active; multisex active”.

For `CC(Cl)Cl`, the outcome is “inactive; multisex inactive; multispecies inactive”.

In the case of `CN(C)C(=O)Nc1ccc(Cl)c(Cl)c1`, the outcome was “inactive; multisex inactive”.

As for `Nc1ccc(Oc2ccc(Cl)cc2)cc1`, the outcome was “active; multisite active; multisex active; multispecies active”.

Regarding `O=C(Nc1ccc2c(c1)Cc1ccccc1-2)C(F)(F)F`, the outcome was “active; multisite active”.

For `C1COCCO1`, the outcome was “active; multisite active; multisex active; multispecies active”.

Turning to `Nc1ccc(N)c2c1C(=O)c1c(N)ccc(N)c1C2=O`, the outcome was “active; multisex active”.

As to `Cc1ccc2c(-c3ccccc3)nc(=O)n(C(C)C)c2c1`, the outcome was “inactive; multisex inactive”.

Consider `O=C(O)CC[N+](=O)[O-]`, for which the outcome was “inactive; multisex inactive; multispecies inactive”.

In the case of `CC(O)CN(N=O)C(=O)NCCCl` (configuration not stated), the outcome is “active; multisex active”.

For the compound `CSCCC(N)C(=O)O` (configuration not stated), the outcome is “inactive; multispecies inactive”.

On to `C=CCO`, for which the outcome was “inactive; multisex inactive”.

With `Oc1ccc(OCc2ccccc2)cc1`, the outcome is “inactive; multisex inactive”.

For the compound `CC/C=C(/CC)[N+](=O)[O-]`, the outcome is “active; multispecies active”.

Take `FC(F)Cl`: the outcome is “inactive; multisex inactive; multispecies inactive”.

For the compound `O=c1cc[nH]c(=S)[nH]1`, the outcome is “active; multisite active; multisex active; multispecies active”.

Take `NNc1ccc(C(=O)O)cc1`: the outcome is “active; multisex active”.

With `O=C(Oc1ccccc1)Oc1ccccc1`, the outcome was “inactive; multisex inactive”.

Take `CC(C)(C)NC[C@H](O)COc1cccc2c1CCCC2=O`: the outcome is “inactive; multisex inactive; multispecies inactive”.

Turning to `C/C=C(/C)C(=O)O[C@H]1CCN2CC=C(COC(=O)[C@](O)([C@H](C)OC)C(C)(C)O)[C@H]12`, the outcome is “active; multisite active; multisex active”.

For `S=c1[nH]c2ccccc2s1`, the outcome is “active; multisite active; multisex active”.

For `COc1cc(S(C)=O)ccc1-c1nc2ccncc2[nH]1` (configuration not stated), the outcome is “active; multisex active”.

Take `C[C@](N)(Cc1ccc(O)c(O)c1)C(=O)O`: the outcome was “inactive; multisex inactive; multispecies inactive”.

Take `C=C1C[C@@]23CC[C@H]4[C@@](C)(CCC[C@@]4(C)C(=O)O[C@@H]4O[C@H](CO)[C@@H](O)[C@H](O)[C@H]4O)[C@@H]2CC[C@]1(O[C@@H]1O[C@H](CO)[C@@H](O)[C@H](O)[C@H]1O[C@@H]1O[C@H](CO)[C@@H](O)[C@H](O)[C@H]1O)C3`: the outcome was “inactive; multisex inactive”.

`CN(C)CCN(Cc1ccsc1)c1ccccn1`: the outcome was “inactive; multisex inactive”.

Take `CC/C(=C(\c1ccccc1)c1ccc(OCCN(C)C)cc1)c1ccccc1`: the outcome is “active; multisite active; multisex active; multispecies active”.

For the compound `CN(C)CCOC(c1ccccc1)c1ccccc1`, the outcome is “inactive; multisex inactive; multispecies inactive”.

For the compound `O.O.O.O.O.O.O.O=S(=O)([O-])[O-].[Co+2]`, the outcome is “active; multisite active; multisex active; multispecies active”.

In the case of `Clc1cc2c(cc1Cl)Oc1cc(Cl)c(Cl)cc1O2`, the outcome was “active; multisite active; multisex active; multispecies active”.

As for `ClC(Cl)(Cl)C(Cl)(Cl)Cl`, the outcome was “active; multisite active; multisex active; multispecies active”.

Turning to `CCN(CC)CCCNC(=O)Cn1ncc(-c2ccccc2)c1-c1ccccc1`, the outcome was “inactive; multisex inactive”.

Consider `CCN(CC)C(=O)/C(Cl)=C(\C)OP(=O)(OC)OC`, for which the outcome was “inactive; multisex inactive”.

`CCC1(c2ccccc2)C(=O)NC(=O)NC1=O`: the outcome was “active; multisex active”.

On to `Cc1cccc(Nc2cc(Cl)nc(SCC(=O)NCCO)n2)c1C`, for which the outcome was “active; multisex active; multispecies active”.

On to `Cc1ccc(S(=O)(=O)OCCN(C)N=O)cc1`, for which the outcome is “active; multisite active; multisex active”.

`Nc1nc(-c2ccc([N+](=O)[O-])o2)cs1`: the outcome was “active; multisite active; multispecies active”.

Regarding `C=CCN(CC(O)CO)N=O` (configuration not stated), the outcome is “active; multisite active”.

In the case of `O=NN1CCNCC1`, the outcome is “active; multisite active; multisex active”.

As for `Cc1ccc2ncccc2c1`, the outcome is “inactive; multisex inactive”.

As to `CCCCC1(COC(=O)CCC(=O)O)C(=O)N(c2ccccc2)N(c2ccccc2)C1=O`, the outcome is “inactive; multisex inactive”.

As to `OCC(O)CCl` (configuration not stated), the outcome is “inactive; multisex inactive”.

As to `C/C=C/C(=O)Oc1c(C(C)CCCCCC)cc([N+](=O)[O-])cc1[N+](=O)[O-]` (configuration not stated), the outcome is “inactive; multisex inactive”.

As for `Cn1cc[nH]c1=S`, the outcome is “active; multisex active”.

Consider `CCO`, for which the outcome is “active; multisite active”.

`COc1ccc(N)c(C)c1`: the outcome was “active; multisex active”.

For `CC(O)COC(C)(C)C` (configuration not stated), the outcome was “active; multisex active”.

For the compound `N[C@@H](CCC(=O)NNc1ccc(CO)cc1)C(=O)O`, the outcome was “inactive; multisex inactive”.

For the compound `CCNC(=S)NCC`, the outcome is “active; multisex active”.

With `CC(=O)CN(CC(O)CO)N=O` (configuration not stated), the outcome is “active; multisite active; multispecies active”.

As for `O=[N+]([O-])c1ccc(-c2cnc3ccccn23)o1`, the outcome is “active; multisite active; multisex active; multispecies active”.

Turning to `Nc1ccc(-c2ccc(N)c(N)c2)cc1N`, the outcome is “active; multisite active; multispecies active”.

Turning to `BrC(Br)Br`, the outcome was “active; multisex active”.

As to `OC[C@H]1O[C@H](O[C@]2(CCl)O[C@H](CCl)[C@@H](O)[C@@H]2O)[C@H](O)[C@@H](O)[C@H]1Cl`, the outcome was “inactive; multisex inactive”.

As for `C=CC`, the outcome is “inactive; multisex inactive; multispecies inactive”.

Consider `C[C@@H]1O[C@@]2(CS1)CN1CCC2CC1`, for which the outcome is “inactive; multisex inactive”.

`O=C1O[C@H]([C@H](O)CO)C(O)=C1O`: the outcome is “inactive; multisex inactive; multispecies inactive”.

For `C[C@@H]1Cc2c(Cl)cc(C(=O)N[C@@H](Cc3ccccc3)C(=O)O)c(O)c2C(=O)O1`, the outcome was “active; multisite active; multisex active; multispecies active”.

Consider `OCCO`, for which the outcome is “inactive; multisex inactive”.

For the compound `ClC(Cl)=C(c1ccc(Cl)cc1)c1ccc(Cl)cc1`, the outcome is “active; multisex active; multispecies active”.

For `Brc1cc(Br)c2cccnc2c1`, the outcome is “inactive; multisex inactive”.

Regarding `O=P1(N(CCCl)CCCl)NCCCO1` (configuration not stated), the outcome was “active; multisite active; multisex active; multispecies active”.

Consider `CC1(C)C(=O)Nc2ccc(C3=NNC(=O)CC3)cc21`, for which the outcome is “active; multisex active”.

For the compound `c1ccc(OCC2CO2)cc1` (configuration not stated), the outcome is “active; multisex active”.
